Laboratory results: patent publication US20230167088A1, “1-PYRAZINYLPYRAZOLYL-3-OXYALKYL ACIDS AND THEIR DERIVATIVES, AND THEIR USE FOR CONTROL OF UNDESIRED PLANT GROWTH” (BAYER AKTIENGESELLSCHAFT, priority 2020, published 2023)

What was measured:
SETVI [1] = experiment: Herbicidal pre-emergence action 2a (greenhouse pots, visual scoring); format: in vivo, Setaria viridis; conditions: dosage 320 g/ha, visual scoring after about 3 weeks vs untreated controls
Text: (§1) [table] a) Seeds of monocotyledonous and dicotyledonous weed plants and crop plants are placed in plastic or organic plant pots and covered with soil. The compounds of the invention, formulated in the form of wettable powders (WP) or as emulsion concentrates (EC), are then applied onto the surface of the covering soil as aqueous suspension or emulsion with addition of 0.5% additive at a water application rate of 600 1/ha (converted). After the treatment, the pots are placed in a greenhouse and kept under good growth conditions for the trial plants. After about 3 weeks, the effect of the preparations is scored visually in comparison with untreated controls as percentages. For example, 100% activity=the plants have died, 0% activity=like control plants. Tables B1 to B15 below show the effects of selected compounds of the general formula (I) according to Tables 1 and 2 on various harmful plants and an application rate corresponding to 320 g/ha and/or 80 g/ha, which were obtained by the experimental procedure mentioned above.

AMARE [2] = experiment: as above; format: in vivo, Amaranthus retroflexus; conditions: dosage 320 g/ha, visual scoring after about 3 weeks vs untreated controls
Text: as §1

ALOMY [3] = experiment: Herbicidal post-emergence action 1a (greenhouse pots, visual rating); format: in vivo, Alopecurus myosuroides; conditions: rated visually about 3 weeks after treatment, 100% = plants have died, 0% = like control plants
Protocol: (§2) [table] a) Seeds of monocotyledonous and dicotyledonous weeds and crop plants are placed in sandy loam in plastic or organic plant pots, covered with soil and cultivated in a greenhouse under controlled growth conditions. 2 to 3 weeks after sowing, the test plants are treated at the one-leaf stage. The compounds of the invention, formulated in the form of wettable powders (WP) or as emulsion concentrates (EC), are then sprayed onto the green parts of the plants as aqueous suspension or emulsion with addition of 0.5% additive at a water application rate of 600 1/ha (converted). After the test plants have been kept in the greenhouse under optimum growth conditions for about 3 weeks, the activity of the preparations is rated visually in comparison to untreated controls. For example, 100% activity=the plants have died, 0% activity=like control plants. Tables A1 to A15 below show the effects of selected compounds of the general formula (I) according to Tables 1 and 2 on various harmful plants and an application rate corresponding to 320 g/ha and/or 80 g/ha, which were obtained by the experimental procedure mentioned above.

AVEFA [4] = experiment: as above; format: in vivo, Avena fatua; conditions: rated visually about 3 weeks after treatment, 100% = plants have died, 0% = like control plants
Protocol: as §2

ALOMY [5] = experiment: Herbicidal pre-emergence action 2a (greenhouse pots, visual scoring); format: in vivo, Alopecurus myosuroides; conditions: dosage 320 g/ha, visual scoring after about 3 weeks
Text: as §1

LOLRI [6] = experiment: as above; format: in vivo, Lolium rigidum; conditions: dosage 320 g/ha, visual scoring after about 3 weeks vs untreated controls
Text: as §1

POLCO [7] = experiment: as above; format: in vivo, Polygonum convolvulus; conditions: dosage 320 g/ha, visual scoring after about 3 weeks vs untreated controls
Text: as §1

AMARE [8] = experiment: Herbicidal post-emergence action 1a (greenhouse pots, visual rating); format: in vivo, Amaranthus retroflexus; conditions: visual rating about 3 weeks after treatment
Protocol: as §2

POLCO [9] = experiment: as above; format: in vivo, Polygonum convolvulus; conditions: dosage 320 g/ha, visual rating about 3 weeks after treatment
Protocol: as §2

VERPE [10] = experiment: Herbicidal pre-emergence action 2a (greenhouse pots, visual scoring); format: in vivo, Veronica persica; conditions: dosage 320 g/ha, visual scoring after about 3 weeks vs untreated controls
Text: as §1

LOLRI [11] = experiment: Herbicidal post-emergence action 1a (greenhouse pots, visual rating); format: in vivo, Lolium rigidum; conditions: Dosage 320 g/ha; rated visually about 3 weeks after treatment; 100% = plants have died, 0% = like control plants
Protocol: as §2

VERPE [12] = experiment: as above; format: in vivo, Veronica persica; conditions: dosage 320 g/ha, visual rating about 3 weeks after treatment
Protocol: as §2

AVEFA [13] = experiment: Herbicidal pre-emergence action 2a (greenhouse pots, visual scoring); format: in vivo, Avena fatua; conditions: dosage 320 g/ha, visual scoring after about 3 weeks
Text: as §1

SETVI [14] = experiment: Herbicidal post-emergence action 1a (greenhouse pots, visual rating); format: in vivo, Setaria viridis; conditions: rated visually about 3 weeks after treatment, 100% = plants have died, 0% = like control plants
Protocol: as §2

## CN(C)S(=O)(=O)NC(=O)COc1nn(-c2cnccn2)c(-c2ccc(F)nc2)c1Br [II-12]
SETVI [1]
  Pre-emergence action against SETVI in %: 100%
AMARE [2]
  Pre-emergence action against AMARE in %: 80%

## CC(Oc1nn(-c2cnccn2)c(-c2ccc(F)nc2)c1C1CC1)C(=O)O (stereo not drawn) [Example I-86]
ALOMY [3]; Dosage 80 g/ha
  Post-emergence action against ALOMY in %: 90%
AVEFA [4]; Dosage 80 g/ha
  Post-emergence action against AVEFA in %: 90%
ALOMY [5]
  Pre-emergence action against ALOMY in %: 100%
LOLRI [6]
  Pre-emergence action against LOLRI in %: 100%
AMARE [2]
  Pre-emergence action against AMARE in %: 80%
POLCO [7]
  Pre-emergence action against POLCO in %: 80%

## CS(=O)(=O)NC(=O)COc1nn(-c2cnccn2)c(-c2ccc(F)nc2)c1Br [II-14]
AMARE [2]
  Pre-emergence action against AMARE in %: 80%

## COC(=O)CNC(=O)COc1nn(-c2cnccn2)c(-c2ccc(F)nc2)c1Br [II-08]
AMARE [8]; dosage 80 g/ha
  Post-emergence action against AMARE in %: 80%
AMARE [2]
  Pre-emergence action against AMARE in %: 90%

## COC(=O)[C@@H](C)Oc1nn(-c2nccnc2F)c(-c2ccc(F)nc2)c1Br [Example I-80]
AMARE [8]; dosage 80 g/ha
  Post-emergence action against AMARE in %: 80%
AMARE [8]; dosage 320 g/ha
  Post-emergence action against AMARE in %: 80%
POLCO [9]
  Post-emergence action against POLCO in %: 80%
ALOMY [5]
  Pre-emergence action against ALOMY in %: 100%
LOLRI [6]
  Pre-emergence action against LOLRI in %: 80%
AMARE [2]
  Pre-emergence action against AMARE in %: 100%
VERPE [10]
  Pre-emergence action against VERPE in %: 80%

## CC(C)N(C)S(=O)(=O)NC(=O)COc1nn(-c2cnccn2)c(-c2ccc(F)nc2)c1Br [II-13]
AMARE [8]; dosage 80 g/ha
  Post-emergence action against AMARE in %: 80%
AMARE [2]
  Pre-emergence action against AMARE in %: 90%

## CCOC(=O)[C@@H](C)Oc1nn(-c2cnccn2)c(-c2ccc(F)nc2)c1C1CC1 [Example I-88]
ALOMY [3]; Dosage 80 g/ha
  Post-emergence action against ALOMY in %: 80%
ALOMY [3]; Dosage 320 g/ha
  Post-emergence action against ALOMY in %: 100%
AVEFA [4]; Dosage 320 g/ha
  Post-emergence action against AVEFA in %: 100%
LOLRI [11]
  Post-emergence action against LOLRI in %: 100%
AMARE [8]; dosage 320 g/ha
  Post-emergence action against AMARE in %: 80%
POLCO [9]
  Post-emergence action against POLCO in %: 80%
VERPE [12]
  Post-emergence action against VERPE in %: 80%
ALOMY [5]
  Pre-emergence action against ALOMY in %: 100%
AVEFA [13]
  Pre-emergence action against AVEFA in %: 90%
LOLRI [6]
  Pre-emergence action against LOLRI in %: 100%
SETVI [1]
  Pre-emergence action against SETVI in %: 80%
POLCO [7]
  Pre-emergence action against POLCO in %: 80%
VERPE [10]
  Pre-emergence action against VERPE in %: 90%

## COC(=O)[C@@H](C)Oc1nn(-c2cnccn2)c(-c2ccc(F)nc2)c1C1CC1 [Example I-87]
ALOMY [3]; Dosage 80 g/ha
  Post-emergence action against ALOMY in %: 100%
AVEFA [4]; Dosage 80 g/ha
  Post-emergence action against AVEFA in %: 90%
AMARE [8]; dosage 80 g/ha
  Post-emergence action against AMARE in %: 80%
ALOMY [5]
  Pre-emergence action against ALOMY in %: 100%
AVEFA [13]
  Pre-emergence action against AVEFA in %: 90%
LOLRI [6]
  Pre-emergence action against LOLRI in %: 100%
SETVI [1]
  Pre-emergence action against SETVI in %: 100%
VERPE [10]
  Pre-emergence action against VERPE in %: 80%

## COC(=O)C(C)Oc1nn(-c2nccnc2F)c(-c2ccc(F)nc2)c1Br (racemic) [Example I-78]
SETVI [14]; Dosage 80 g/ha
  Post-emergence action against SETVI in %: 80%
SETVI [14]; Dosage 320 g/ha
  Post-emergence action against SETVI in %: 100%
VERPE [12]
  Post-emergence action against VERPE in %: 80%
SETVI [1]
  Pre-emergence action against SETVI in %: 90%
AMARE [2]
  Pre-emergence action against AMARE in %: 80%

## COC(=O)COc1nn(-c2cnccn2)c(-c2ccc(F)nc2)c1C1CC1 [Example I-84]
AMARE [8]; dosage 80 g/ha
  Post-emergence action against AMARE in %: 90%
AMARE [8]; dosage 320 g/ha
  Post-emergence action against AMARE in %: 90%
POLCO [9]
  Post-emergence action against POLCO in %: 80%
VERPE [12]
  Post-emergence action against VERPE in %: 80%
AMARE [2]
  Pre-emergence action against AMARE in %: 90%
